Laboratory results taken from PubChem BioAssay (NCI).
“And” between values parts separate entries of the source, which are not always exact repeats. Equal values may be shown once.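 Compound exposure: 48 hours, 5 concentrations, 96-well plates. Abbreviation: GI50, concentration required for 50% inhibition of growth. Definition used: TGI = concentration required for complete inhibition of growth.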

How the values were obtained:
Assay in all cases: inhibition of tumour cell growth, NCI panel, 48 h; in the data active means GI50 below about 0.43 µM; inactive means the rest
786-0 renal = system: 786-0 renal
A498 renal = system: A498 renal
A549 NSCLC = system: A549 NSCLC
ACHN renal = system: ACHN renal
BT-549 breast = system: BT-549 breast
CCRF-CEM leukemia = system: CCRF-CEM leukemia
COLO 205 colon = system: COLO 205 colon
DU-145 prostate = system: DU-145 prostate
EKVX NSCLC = system: EKVX NSCLC
HCC-2998 colon = system: HCC-2998 colon
HCT-116 colon = system: HCT-116 colon
HCT-15 colon = system: HCT-15 colon
HL-60(TB) leukemia = system: HL-60(TB) leukemia
HOP-62 NSCLC = system: HOP-62 NSCLC
HOP-92 NSCLC = system: HOP-92 NSCLC
HS 578T breast = system: HS 578T breast
HT29 colon = system: HT29 colon
IGROV1 ovarian = system: IGROV1 ovarian
K-562 leukemia = system: K-562 leukemia
KM12 colon = system: KM12 colon
LOX IMVI melanoma = system: LOX IMVI melanoma
M14 melanoma = system: M14 melanoma
MCF7 breast = system: MCF7 breast
MDA-MB-231 breast = system: MDA-MB-231 breast
MDA-MB-435 = system: MDA-MB-435
MOLT-4 leukemia = system: MOLT-4 leukemia
NCI-H226 lung = system: NCI-H226 lung
NCI-H23 lung = system: NCI-H23 lung
NCI-H460 lung = system: NCI-H460 lung
NCI-H522 lung = system: NCI-H522 lung
NCI/ADR-RES ovarian = system: NCI/ADR-RES ovarian
OVCAR-3 ovarian = system: OVCAR-3 ovarian
OVCAR-4 ovarian = system: OVCAR-4 ovarian
OVCAR-5 ovarian = system: OVCAR-5 ovarian
OVCAR-8 ovarian = system: OVCAR-8 ovarian
PC-3 prostate = system: PC-3 prostate
RPMI-8226 leukemia = system: RPMI-8226 leukemia
RXF 393 renal = system: RXF 393 renal
SF-268 CNS = system: SF-268 CNS
SF-295 CNS = system: SF-295 CNS
SF-539 CNS = system: SF-539 CNS
SK-MEL-2 melanoma = system: SK-MEL-2 melanoma
SK-MEL-28 melanoma = system: SK-MEL-28 melanoma
SK-MEL-5 melanoma = system: SK-MEL-5 melanoma
SK-OV-3 ovarian = system: SK-OV-3 ovarian
SN12C renal = system: SN12C renal
SNB-19 CNS = system: SNB-19 CNS
SNB-75 CNS = system: SNB-75 CNS
SR leukemia = system: SR leukemia
SW-620 colon = system: SW-620 colon
TK-10 renal = system: TK-10 renal
U251 CNS = system: U251 CNS
UACC-257 melanoma = system: UACC-257 melanoma
UACC-62 melanoma = system: UACC-62 melanoma
UO-31 renal = system: UO-31 renal
CAKI-1 renal = system: CAKI-1 renal
MALME-3M melanoma = system: MALME-3M melanoma

COC(=O)C1CCC(NC(=O)c2csc([C@@H](C[C@H](C(C)C)N(C)C(=O)[C@@H](NC(=O)[C@H]3CCCCN3C)C(C)C)OC(C)=O)n2)CC1 (stereo partly drawn)
inactive: GI50 (SK-MEL-28 melanoma) > 33300 nM | GI50 (TK-10 renal) 1050 nM | GI50 (UACC-257 melanoma) > 33300 nM
28.9 nM: TGI (DU-145 prostate)
2.65 nM and 8.57 nM: TGI (MDA-MB-435)
> 33300 nM: TGI (786-0 renal) | TGI (A549 NSCLC) | TGI (ACHN renal) | TGI (CCRF-CEM leukemia) | TGI (EKVX NSCLC) | TGI (HCC-2998 colon) | TGI (HCT-15 colon) | TGI (HOP-62 NSCLC) | TGI (HS 578T breast) | TGI (IGROV1 ovarian) | TGI (K-562 leukemia) | TGI (KM12 colon) | TGI (LOX IMVI melanoma) | TGI (MCF7 breast) | TGI (MOLT-4 leukemia) | TGI (NCI-H226 lung) | TGI (NCI-H23 lung) | TGI (NCI-H460 lung) | TGI (NCI/ADR-RES ovarian) | TGI (OVCAR-4 ovarian) | TGI (OVCAR-5 ovarian) | TGI (OVCAR-8 ovarian) | TGI (PC-3 prostate) | TGI (RPMI-8226 leukemia) | TGI (RXF 393 renal) | TGI (SF-268 CNS) | TGI (SF-295 CNS) | TGI (SK-MEL-2 melanoma) | TGI (SK-MEL-28 melanoma) | TGI (SK-OV-3 ovarian) | TGI (SN12C renal) | TGI (SNB-19 CNS) | TGI (SNB-75 CNS) | TGI (SR leukemia) | TGI (SW-620 colon) | TGI (TK-10 renal) | TGI (U251 CNS) | TGI (UACC-257 melanoma) | TGI (UACC-62 melanoma) | TGI (UO-31 renal)
active: GI50 (786-0 renal) 7.42 nM and 14 nM | GI50 (A498 renal) 6.8 nM and 12.6 nM | GI50 (A549 NSCLC) 8.59 nM and 21 nM | GI50 (ACHN renal) 279 nM | GI50 (BT-549 breast) 9.9 nM and 20 nM | GI50 (CCRF-CEM leukemia) 4.07 nM and 10.7 nM | GI50 (COLO 205 colon) 3.59 nM and 12.1 nM | GI50 (DU-145 prostate) 4.06 nM and 9.67 nM | GI50 (EKVX NSCLC) 15.2 nM and 38.5 nM | GI50 (HCC-2998 colon) 32.5 nM and 99.4 nM | GI50 (HCT-116 colon) 4.01 nM | GI50 (HCT-15 colon) 18.5 nM and 53.6 nM | GI50 (HL-60(TB) leukemia) 3 nM and 7.35 nM | GI50 (HOP-62 NSCLC) 5.19 nM and 16 nM | GI50 (HOP-92 NSCLC) 15.3 nM | GI50 (HS 578T breast) 4.29 nM and 11.1 nM | GI50 (HT29 colon) 3.43 nM and 10.4 nM | GI50 (IGROV1 ovarian) 11.5 nM and 30.5 nM | GI50 (K-562 leukemia) 2.56 nM and 7.66 nM | GI50 (KM12 colon) 4.98 nM and 14 nM | GI50 (LOX IMVI melanoma) 6.44 nM and 16.4 nM | GI50 (M14 melanoma) 5.7 nM and 5.52 nM | GI50 (MCF7 breast) 3.09 nM and 12.1 nM | GI50 (MDA-MB-231 breast) 8.63 nM and 24 nM | GI50 (MDA-MB-435) 0.404 nM and 3.33 nM | GI50 (MOLT-4 leukemia) 5.74 nM and 14.9 nM | GI50 (NCI-H226 lung) 12.6 nM and 31.7 nM | GI50 (NCI-H23 lung) 34.3 nM and 21.7 nM | GI50 (NCI-H460 lung) 3.72 nM and 12 nM | GI50 (NCI-H522 lung) 1.38 nM and 3.33 nM | GI50 (NCI/ADR-RES ovarian) 106 nM and 258 nM | GI50 (OVCAR-3 ovarian) 3.59 nM and 9.35 nM | GI50 (OVCAR-5 ovarian) 11.2 nM and 21.2 nM | GI50 (OVCAR-8 ovarian) 11.4 nM and 26.6 nM | GI50 (PC-3 prostate) 8.4 nM and 16.8 nM | GI50 (RPMI-8226 leukemia) 4.98 nM and 14.9 nM | GI50 (RXF 393 renal) 9.23 nM | GI50 (SF-268 CNS) 9.2 nM and 19.7 nM | GI50 (SF-295 CNS) 4.23 nM and 14.6 nM | GI50 (SF-539 CNS) 3.94 nM and 12.7 nM | GI50 (SK-MEL-2 melanoma) 7.62 nM and 10.9 nM | GI50 (SK-MEL-5 melanoma) 3.26 nM and 10.8 nM | GI50 (SK-OV-3 ovarian) 4.5 nM and 14.8 nM | GI50 (SN12C renal) 6.74 nM and 22.5 nM | GI50 (SNB-19 CNS) 4.7 nM and 15.2 nM | GI50 (SNB-75 CNS) 3.07 nM and 11.9 nM | GI50 (SR leukemia) 2.12 nM and 3.33 nM | GI50 (SW-620 colon) 4.53 nM and 14.9 nM | GI50 (U251 CNS) 4.99 nM and 15.4 nM | GI50 (UACC-62 melanoma) 3.82 nM and 15.7 nM | GI50 (UO-31 renal) 68.4 nM and 303 nM
6730 nM: TGI (HOP-92 NSCLC)
118 nM and 348 nM: TGI (SK-MEL-5 melanoma)
5.9 nM and 10.7 nM: TGI (NCI-H522 lung)
4200 nM: TGI (HT29 colon)
13.6 nM and 18.1 nM: TGI (HL-60(TB) leukemia)
63.7 nM and 151 nM: TGI (SF-539 CNS)
14.1 nM and 78.4 nM: TGI (COLO 205 colon)
127 nM: TGI (A498 renal)
791 nM and 225 nM: TGI (BT-549 breast)
16.3 nM: TGI (M14 melanoma)
29.4 nM: TGI (OVCAR-3 ovarian)

CC(=O)c1cnc2ccc(-c3cc(Cl)c(O)c(Cl)c3)nc2c1NC1CCC(CN(C)C)CC1 (stereo not drawn)
78.1 nM and 562 nM: TGI (OVCAR-3 ovarian)
55.4 nM and 306 nM: TGI (SK-MEL-5 melanoma)
85.5 nM and 689 nM: TGI (SK-MEL-2 melanoma)
active: GI50 (786-0 renal) 52.1 nM and 346 nM | GI50 (A498 renal) 13.7 nM and 111 nM | GI50 (CAKI-1 renal) 12.6 nM and 109 nM | GI50 (COLO 205 colon) 42.5 nM and 318 nM | GI50 (EKVX NSCLC) 48.6 nM and 337 nM | GI50 (HCC-2998 colon) 44.9 nM and 191 nM | GI50 (HCT-116 colon) 9.06 nM and 61.3 nM | GI50 (HOP-62 NSCLC) 27.5 nM and 195 nM | GI50 (HOP-92 NSCLC) 11.4 nM and 52.6 nM | GI50 (MALME-3M melanoma) 48.4 nM and 49.9 nM | GI50 (MCF7 breast) 17.9 nM and 169 nM | GI50 (MDA-MB-231 breast) 31.6 nM and 185 nM | GI50 (MDA-MB-435) 12.8 nM and 116 nM | GI50 (NCI-H226 lung) 39.5 nM and 81.9 nM | GI50 (NCI-H522 lung) 4.88 nM and 48 nM | GI50 (NCI/ADR-RES ovarian) 53.1 nM and 310 nM | GI50 (OVCAR-4 ovarian) 40.4 nM and 245 nM | GI50 (OVCAR-5 ovarian) 61.2 nM and 207 nM | GI50 (OVCAR-8 ovarian) 28.9 nM and 255 nM | GI50 (RPMI-8226 leukemia) 45.1 nM and 367 nM | GI50 (RXF 393 renal) 35.8 nM and 185 nM | GI50 (SF-295 CNS) 32.9 nM and 267 nM | GI50 (SK-MEL-2 melanoma) 28.8 nM and 237 nM | GI50 (SK-MEL-28 melanoma) 19.4 nM and 186 nM | GI50 (SNB-19 CNS) 31.1 nM and 230 nM | GI50 (SNB-75 CNS) 5.15 nM and 33.3 nM | GI50 (SR leukemia) 5.49 nM | GI50 (TK-10 renal) 30.7 nM and 160 nM | GI50 (UACC-257 melanoma) 54.4 nM and 192 nM
2500 nM and 3820 nM: TGI (SNB-19 CNS)
384 nM and 1160 nM: TGI (MDA-MB-435)
171 nM and 758 nM: TGI (SK-MEL-28 melanoma)
84.4 nM and 436 nM: GI50 (HT29 colon)
36.8 nM and 360 nM: TGI (SNB-75 CNS)
264 nM and 1120 nM: TGI (LOX IMVI melanoma)
1080 nM and 1760 nM: TGI (DU-145 prostate)
359 nM and 608 nM: TGI (NCI-H226 lung)
39.8 nM: TGI (SR leukemia)
224 nM and 695 nM: TGI (MCF7 breast)
107 nM and 739 nM: TGI (HS 578T breast)
672 nM and 535 nM: TGI (CAKI-1 renal)
289 nM and 1420 nM: TGI (786-0 renal)
87.7 nM and 508 nM: TGI (UO-31 renal)
2500 nM and > 10000 nM: TGI (HCT-116 colon) | TGI (K-562 leukemia) | TGI (OVCAR-5 ovarian) | TGI (SW-620 colon)
1340 nM and 2270 nM: TGI (SN12C renal)
53.1 nM and 505 nM: TGI (SF-539 CNS)
558 nM and 2000 nM: TGI (KM12 colon)
570 nM and 1450 nM: TGI (A549 NSCLC)
888 nM and 4410 nM: TGI (HT29 colon)
495 nM and 772 nM: TGI (MDA-MB-231 breast)
111 nM and 987 nM: TGI (SK-OV-3 ovarian)
120 nM and 588 nM: TGI (BT-549 breast)
234 nM and 783 nM: TGI (UACC-257 melanoma)
240 nM and 1540 nM: TGI (CCRF-CEM leukemia)
105 nM and 1050 nM: TGI (NCI-H460 lung)
2500 nM and 1190 nM: TGI (PC-3 prostate)
161 nM and 959 nM: TGI (HOP-62 NSCLC)
189 nM and 1220 nM: TGI (SF-268 CNS)
55.9 nM and 403 nM: TGI (A498 renal)
93.9 nM and 419 nM: TGI (RXF 393 renal)
220 nM and 416 nM: TGI (MALME-3M melanoma)
324 nM and 2580 nM: TGI (OVCAR-4 ovarian)
99 nM and 458 nM: TGI (HOP-92 NSCLC)
106 nM and 664 nM: TGI (TK-10 renal)
273 nM and 760 nM: TGI (M14 melanoma)
